Source: patent publication EP4631938A1, “NITROGEN-CONTAINING HETEROCYCLE WITH SEROTONIN RECEPTOR-BINDING ACTIVITY AND CARBOCYCLIC DERIVATIVE” (Shionogi & Co., Ltd, priority 2022, dated 2024)
Like-named read-outs stand apart in the source and are kept apart here.

Key:
[1] = target: T1, human recombinant 5-HT2A receptor (Homo sapiens, UniProt P28223); test: Test Example 1-2: 5-HT2A receptor binding inhibition test ([3H]-Ketanserin; non-specific ligand Ketanserin)
T1 construct: expressed in transfected cells; host or cells: Jump-In HEK cells (membrane preparation)
T1 sequence (P28223 whole entry): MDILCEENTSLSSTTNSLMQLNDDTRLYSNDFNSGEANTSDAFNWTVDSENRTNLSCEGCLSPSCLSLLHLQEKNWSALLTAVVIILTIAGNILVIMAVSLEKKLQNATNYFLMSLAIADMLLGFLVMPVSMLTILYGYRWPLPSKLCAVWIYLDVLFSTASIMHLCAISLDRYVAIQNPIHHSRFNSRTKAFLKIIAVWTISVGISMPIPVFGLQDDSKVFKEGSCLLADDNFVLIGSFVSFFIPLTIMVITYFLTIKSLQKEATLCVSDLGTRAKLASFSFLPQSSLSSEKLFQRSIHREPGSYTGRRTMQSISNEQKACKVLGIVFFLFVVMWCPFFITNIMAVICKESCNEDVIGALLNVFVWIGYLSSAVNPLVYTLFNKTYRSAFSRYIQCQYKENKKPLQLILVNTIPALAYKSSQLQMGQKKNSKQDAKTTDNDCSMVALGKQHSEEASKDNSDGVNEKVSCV
How it was run: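 Membranes expressing the receptor were incubated with [3H]-ketanserin and compound for 1.5 h at 25 °C, then filtered onto plates presoaked in 50 mmol/L Tris-HCl pH 7.4 and scintillation-counted. Non-specific binding was defined with 500 µmol/L unlabeled ketanserin. Ki was taken from dose-response curves, with Kd set for each membrane lot by Scatchard analysis.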

[2] = target: T2, human recombinant 5-HT2C receptor (Homo sapiens, UniProt P28335); test: Test Example 2-2: 5-HT2C receptor binding inhibition test ([3H]-Mesulergine; non-specific ligand Ketanserin); details: non-specific binding with 500 µmol/L Ketanserin, 37°C, 2 hours
T2 construct: expressed in transfected cells; host or cells: Jump-In HEK cells (membrane preparation)
T2 sequence (P28335 33-458): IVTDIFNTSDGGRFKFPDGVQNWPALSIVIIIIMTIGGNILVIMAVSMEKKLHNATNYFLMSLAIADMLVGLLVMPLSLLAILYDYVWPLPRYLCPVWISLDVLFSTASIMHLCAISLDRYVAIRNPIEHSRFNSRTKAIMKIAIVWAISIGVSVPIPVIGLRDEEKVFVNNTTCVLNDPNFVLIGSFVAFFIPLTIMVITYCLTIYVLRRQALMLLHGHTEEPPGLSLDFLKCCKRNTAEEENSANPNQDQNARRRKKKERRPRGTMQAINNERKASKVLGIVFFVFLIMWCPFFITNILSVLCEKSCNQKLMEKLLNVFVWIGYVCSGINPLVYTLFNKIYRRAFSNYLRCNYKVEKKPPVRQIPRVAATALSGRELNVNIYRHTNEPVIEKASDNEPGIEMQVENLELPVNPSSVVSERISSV
Description: The Kd value is calculated when the lot of the cell membrane is changed. 1 mmol/L non-specific binding calculating compound dissolved in DMSO or DMSO is previously dispensed to the microplate by 0.5 µL, and the cell membrane is diluted with an Assay buffer. The radioactive ligand solution is diluted step by step, and counts are checked with a liquid scintillator. The Assay buffer containing diluted cell membranes is dispensed by 50 µL/well into the microplate. The radioactive ligand solution is then dispensed by 50 µL/well into the microplate and the plate is sealed. The microplate is allowed to stand at 37°C for 2 hours. During this time, 50 mmol/L Tris-HCl (pH 7.4) is dispensed by 50 µL/well into the UniFilter plate and allowed to stand at 4°C for 1 hour or longer. Thereafter, filtration is performed with a Cell Harvester (PerkinElmer). The radioactive ligand solution is dispensed by 10 µL/well into empty wells of the UniFilter plate. After drying the UniFilter plate at room temperature, MicroScinti20 is dispensed by 50 µL/well into the UniFilter plate, and the plate is sealed. UniFilter plate is allowed to stand at room temperature overnight. The radioactivity of [^3H]-Mesulergine bound to the 5-HT2C receptor is measured using Microbeta2 (PerkinElmer) at a measurement time of 1 min/well. The Saturation curve is drawn from the measured value, and the Kd value is calculated from the slope of the Scatchard Plot.
A compound solution dissolved in DMSO is dispensed to a microplate by 0.5 µL, and a cell membrane and a hot ligand are each diluted with an Assay buffer. The Assay buffer containing diluted cell membrane is then dispensed by 50 µL/well into the microplate. The radioactive ligand solution is then dispensed by 50 µL/well into the microplate and the plate is sealed. The microplate is then allowed to stand at 37°C for 2 hours. During this time, 50 mmol/L Tris-HCl (pH 7.4) is dispensed by 50 µL/well into the UniFilter plate and allowed to stand at 4°C for 1 hour or longer. Thereafter, filtration is performed with a Cell Harvester (PerkinElmer). After drying the UniFilter plate at room temperature, MicroScinti20 is dispensed by 50 µL/well into the UniFilter plate, and the plate is sealed. UniFilter plate is allowed to stand at room temperature overnight. The radioactivity of [^3H]-Mesulergine bound to the 5-HT2C receptor is measured using Microbeta2 (PerkinElmer) at a measurement time of 1 min/well. Non-specific binding is calculated from the radioactivity of [^3H]-Mesulergine in the presence of 500 µmol/L Ketanserin of unlabeled ligand, and total binding is calculated from the radioactivity of [^3H]-Mesulergine in the absence of the compound of the present invention (Vehicle). Finally, the Ki value is calculated from the dose-response curve.
(The binding activity of the compound according to the present invention is calculated from the following binding inhibition rate (%).) Inhibition rate (%) = [1−(c−a)/(b−a)] × 100 [formula] • a; average cpm of non-specific binding • b; average cpm of total binding • c; cpm in the presence of the test compound
The compounds of the present invention were tested essentially as described above.

[3] = [3H]-Ketanserin, non-specific binding with 500 µmol/L Ketanserin, room temperature (25°C), 1.5 hours, read-out: h 5-HT2A Ki

Row | SMILES | Ki [1, 3] | Ki [2] | Ki [1]
1 | Cn1ncc(Cl)c1-c1cc(Nc2ncc(Cl)cn2)ccc1OCCO [Compound I-138] | 0.264 nM | 4.76 nM | 
2 | Cc1cc(C)c(-c2cc(Nc3ncc(C(F)(F)F)cc3F)ccc2OCCO)c(C)c1 [Compound I-021] | 0.722 nM | 4.1 nM | 
3 | CCn1ncc(C)c1-c1cc(Nc2ncc(C(F)(F)F)cc2F)ccc1OCCO [Compound I-068] | 0.29 nM | 1.15 nM | 
4 | Cn1ncc(Br)c1-c1cc(Nc2ncc(C(F)(F)F)cn2)cnc1OCCO [Compound I-131] | 0.163 nM | 1.25 nM | 
5 | Cc1nc(C)c(-c2cc(Nc3ncc(Cl)cc3F)ccc2OCCO)c(C)n1 [Compound I-098] | 0.559 nM | 3.18 nM | 
6 | Cn1ncc(C#N)c1-c1cc(Nc2ncc(C(F)(F)F)cc2F)c(Cl)cc1OCCO [Compound I-109] |  | 15.4 nM | 0.598 nM
7 | Cc1nnn(C)c1-c1cc(Nc2ncc(C(F)(F)F)cc2F)ccc1OCCO [Compound I-033] | 0.376 nM | 3.43 nM | 
8 | C=Cc1cnn(C)c1-c1cc(Nc2ncc(C(F)(F)F)cc2F)ccc1OCCO [Compound I-053] | 0.291 nM | 1.25 nM | 
9 | Cn1ncc(Br)c1-c1cc(Nc2ncc(C(F)(F)F)cn2)ncc1OCCO [Compound I-159] | 0.295 nM | 1.88 nM | 
10 | Cn1ncc(Br)c1-c1cc(Nc2ccc(C3CC3)cn2)ccc1OCCO [Compound I-048] | 0.163 nM | 0.313 nM | 
11 | Cc1cnc(Nc2ccc(OCCO)c(-c3c(Br)cnn3C)c2)c(F)c1 [Compound I-049] | 0.168 nM | 0.641 nM | 
12 | Cn1ncc(Br)c1-c1cc(Nc2ncc(Br)cc2F)ccc1OCCO [Compound I-043] | 0.188 nM | 0.165 nM | 
13 | Cn1ncc(Br)c1-c1cc(Nc2nc3ccccc3n2C)ccc1OCCO [Compound I-042] | 0.194 nM | 8.35 nM | 
14 | Cn1ncc(Br)c1-c1cc(Nc2ncc(F)cc2F)ncc1OCCO [Compound I-089] | 0.412 nM | 3 nM | 
15 | Cc1ncccc1-c1cc(Nc2ncc(C(F)(F)F)cc2F)ccc1OCCO [Compound I-013] | 0.332 nM | 7.21 nM | 
16 | Cn1ncc(Br)c1-c1cc(Nc2nc(C3CC3)ns2)ccc1OCCO [Compound I-104] | 0.39 nM | 6.13 nM | 
17 | Cn1ncc(Br)c1-c1cc(Nc2ncc(C(F)(F)F)cc2F)cnc1OCCO [I-082] |  | 0.358 nM | 0.184 nM
18 | Cn1ncc(Br)c1-c1cc(Nc2ncc(C3CC3)cn2)ccc1OCCO [Compound I-120] | 0.903 nM | 3.86 nM | 
19 | Cn1ncc(C#N)c1-c1cc(Nc2ncc(C(F)(F)F)cc2F)c(F)cc1OCCO [I-108] |  | 6.23 nM | 0.478 nM
20 | Cn1ncc(C#N)c1-c1cc(Nc2ccc(OC(F)(F)F)cn2)ccc1OCCO [Compound I-121] | 0.279 nM | 1.3 nM | 
21 | Cn1cnc(C#N)c1-c1cc(Nc2ncc(C(F)(F)F)cc2F)ccc1OCCO [I-065] |  | 5.02 nM | 0.15 nM
22 | Cn1ncc(Cl)c1-c1cc(Nc2ncc(Cl)cc2F)cnc1OCCO [Compound I-143] | 0.259 nM | 0.274 nM | 
23 | Cc1cnn(C2CC2)c1-c1cc(Nc2ncc(C(F)(F)F)cc2F)ccc1OCCO [Compound I-074] | 0.236 nM | 0.843 nM | 
24 | Cn1cnc(Br)c1-c1cc(Nc2ncc(F)cc2F)ccc1OCCO [Compound I-032] | 0.734 nM | 8.32 nM | 
25 | Cn1ncc(C#N)c1-c1cc(Nc2ncc(C(F)(F)F)cc2F)ccc1OCCO [I-031] |  | 1.6 nM | 0.239 nM

Row | SMILES | Ki [1, 3] | Ki [2] | Ki [1]
26 | Cc1cnn(C)c1-c1cc(Nc2ncc(C(F)(F)F)cc2F)c(F)cc1OCCO [Compound I-144] | 0.341 nM | 2.49 nM | 
27 | Cn1ncc(Br)c1-c1cc(Nc2nc3ccccc3o2)ccc1OCCO [Compound I-041] | 0.155 nM | 8.83 nM | 
28 | Cn1ncc(Br)c1-c1cc(Nc2nc3ccccc3s2)cnc1OCCO [Compound I-118] | 0.262 nM | 0.596 nM | 
29 | Cn1ncc(Br)c1-c1cc(Nc2ncc(C#N)s2)ccc1OCCO [Compound I-037] | 0.289 nM | 1.4 nM | 
30 | Cc1cc(OCCO)c(-c2c(C#N)cnn2C)cc1Nc1ncc(C(F)(F)F)cc1F [Compound I-107] | 1.67 nM | 99.3 nM | 
31 | Cc1ccncc1-c1cc(Nc2ncc(C(F)(F)F)cc2F)ccc1OCCO [Compound I-024] | 0.607 nM | 7.35 nM | 
32 | Cc1noc(C)c1-c1cc(Nc2ncc(C(F)(F)F)cc2F)ccc1OCCO [Compound I-010] | 0.246 nM | 1.41 nM | 
33 | Cn1ncc(Br)c1-c1cc(Nc2ccc(C(F)F)cn2)ccc1OCCO [Compound I-091] | 0.197 nM | 8.99 nM | 
34 | Cn1ncc(C(F)(F)F)c1-c1cc(Nc2ncc(C(F)(F)F)cc2F)ccc1OCCO [Compound I-052] | 0.389 nM | 0.368 nM | 
35 | Cn1ncc(Br)c1-c1cc(Nc2ccc(Cl)cn2)ccc1OCCO [Compound I-090] | 0.203 nM | 0.575 nM | 
36 | Cn1ncc(C#N)c1-c1cc(Nc2ncc(C(F)(F)F)cc2F)cc(F)c1OCCO [Compound I-110] | 0.375 nM | 17.3 nM | 
37 | Cc1ncnc(C)c1-c1cc(Nc2ccc(OC(F)(F)F)cn2)ccc1OCCO [Compound I-124] | 0.259 nM | 2.32 nM | 
38 | Cn1ncc(Br)c1-c1cc(Nc2ncc(F)cc2F)ccc1OCCO [Compound I-016] | 0.284 nM | 0.699 nM | 
39 | Cc1cnn(C)c1-c1cc(Nc2ccc(C(F)(F)F)cn2)ccc1OCCO [Compound I-075] | 0.149 nM | 0.939 nM | 
40 | Cc1cnn(C)c1-c1cc(Nc2ncc(C(F)(F)F)cc2F)cnc1OCCO [Compound I-083] | 0.289 nM | 2.97 nM | 
41 | Cn1cnc(Cl)c1-c1cc(Nc2ncc(C(F)(F)F)cc2F)ccc1OCCO [Compound I-095] | 0.372 nM | 0.761 nM | 
42 | Cn1ncc(Br)c1-c1cc(Nc2ccc(C3CCC3)cn2)ccc1OCCO [Compound I-093] | 0.283 nM | 0.325 nM | 
43 | Cn1ncc(Br)c1-c1cc(Nc2nc3ccc(Cl)cc3s2)ccc1OCCO [I-064] |  | 0.18 nM | 0.327 nM
44 | CC(C)c1cnn(C)c1-c1cc(Nc2ncc(C(F)(F)F)cc2F)ccc1OCCO [I-056] |  | 1.04 nM | 1.3 nM
45 | Cc1cnn(C)c1-c1cc(Nc2ncc(Cl)cc2F)ncc1OCCO [Compound I-088] | 0.267 nM | 8.31 nM | 
46 | Cn1ncc(C#N)c1-c1cc(Nc2ccc(Cl)cn2)ccc1OCCO [Compound I-102] | 0.265 nM | 7.3 nM | 
47 | Cn1ncc(Br)c1-c1cc(Nc2nc3cc(F)ccc3[nH]2)ccc1OCCO [Compound I-077] | 0.23 nM | 3.25 nM | 
48 | Cn1cnc(Br)c1-c1cc(Nc2ncc(C(F)(F)F)cc2F)ccc1OCCO [Compound I-027] | 0.292 nM | 0.266 nM | 
49 | Cc1ncnc(C)c1-c1cc(Nc2ccc(C(F)(F)F)cn2)ccc1OCCO [Compound I-100] | 0.27 nM | 6.82 nM | 
50 | Cc1cccc(C)c1-c1cc(Nc2ncc(C(F)(F)F)cc2F)ccc1OCCO [Compound I-034] | 0.77 nM | 3.57 nM | 
